The structures appear in SMILES notation. “Also recorded” adds a separate entry of the source.

The subject of the test is T1R3. Briefly: Chorda tympani whole-nerve responses to lingual taste stimuli, T1R3-KO mice. Type of test: in vivo. Conditions: lingual application (FIG. 6A, 7). On the procedure:
Mouse model for sweet property and bitter-masking assay. Recordings of chorda tympani (CT) whole-nerve responses: All protocols involving animals were approved by the Institutional Animal Care and Use Committees at the Monell Center prior to the experiments. The study was performed with mice from two strains: C57BL/6J inbred strain (B6; Jackson Laboratory, Bar Harbor, Me.) bearing the wild-type Tas1r3 allele was used as the control, and the C57BL/6J-Tas1r3^tm1Rjm “gene-knockout” strain (T1R3-KO) lacking the entire T1R3 coding region and devoid of T1R3 protein ([…]., et al., Science, 301: 850-853 (2003)). Afferent signals from taste cells are relayed to the brain via three major gustatory nerves: the chorda tympani, glossopharyngeal, and greater superficial petrosal. […] Neural responses resulting from chemical stimulations of the tongue were fed into an amplifier (Grass Instruments, West Warwick, R.I.) and monitored on an oscilloscope and an audio monitor. Whole-nerve responses were integrated with a time constant of 1.0 s and recorded using a computer for later analysis using a PowerLab system (PowerLab/sp4; AD Instruments, Colorado Springs, Colo.). […] To analyze nerve responses to each stimulus, the magnitudes of integrated responses at 5, 10, 15, 20, and 25 s after stimulus onset were measured and averaged. […]

As for `OC[C@H]1O[C@@H](O[C@@H]2[C@@H](O)[C@H](O)[C@@H](CO)O[C@H]2O)[C@H](O)[C@@H](O)[C@@H]1O` [Sophorose, 2-O-β-D-glucopyranosyl-β-D glucopyranose], the chorda tympani responses entry is “serious deficit; also recorded: nearly absent”.

These data come from US10799590B2, “Compositions containing a bitter tastant and at least one sophorolipid, and methods of reducing bitter taste attributed to a bitter tastant in an edible composition” (The United States of America, as Represented by the …, priority 2015, dated 2020).
